In US20230085307A1, “PYRIDAZINONE COMPOUND AND HERBICIDE” (NISSAN CHEMICAL CORPORATION, priority 2019, published 2023):

Key:
late watergrass = experiment: Test Example 1: herbicidal activity, application before weed generation under submerged conditions (Table 16, symbol A); type: in vivo, late watergrass (Echinochloa oryzicola); conditions: 320 g/ha applied herbicide
Outline: (§1)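 Submerged Wagner pots (alluvial soil, 4 cm water) sown with weed seeds and planted with 2.5-leaf rice seedlings; emulsifiable concentrate diluted in water applied to water surface on sowing day. Held in greenhouse at 25-30 °C; injury scored 0-5 by herbicidal rate after three weeks.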

Japanese bulrush = experiment: Test Example 1: herbicidal activity, application before weed generation under submerged conditions (Table 16, symbol B); type: in vivo, Japanese bulrush (Schoenoplectus juncoides); conditions: 320 g/ha applied herbicide
Outline: as §1

oval-leafed pondweed = experiment: Test Example 1: herbicidal activity, application before weed generation under submerged conditions (Table 16, symbol C); type: in vivo, oval-leafed pondweed (Monochoria vaginalis); conditions: 320 g/ha applied herbicide
Outline: as §1

barnyard grass [1] = experiment: Test Example 3: herbicidal effect by foliage application, Wagner pot (Table 18, symbol H); type: in vivo, barnyard grass (Echinochloa crus-galli); conditions: amount of applied herbicide 320 g/ha
Outline: (§2)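 Plants were sown in alluvial soil held under 0.1–0.5 cm standing water and grown 14 days in a greenhouse at 25–30 °C. An emulsifiable formulation, water-diluted to the set dose, was then sprayed onto the foliage, and effects were scored three weeks later using previously defined criteria.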

Chinese sprangletop = experiment: Test Example 3: herbicidal effect by foliage application, Wagner pot (Table 18, symbol D); type: in vivo, chinese sprangletop (Leptochloa chinensis); conditions: amount of applied herbicide 320 g/ha
Outline: as §2

rice flat sedge = experiment: Test Example 3: herbicidal effect by foliage application, Wagner pot (Table 18, symbol E); type: in vivo, rice flat sedge (Cyperus iria); conditions: amount of applied herbicide 320 g/ha
Outline: as §2

southern crabgrass [2] = experiment: Test Example 4: herbicidal effect by soil treatment (Table 19, symbol F); type: in vivo, southern crabgrass (Digitaria ciliaris); conditions: amount of applied herbicide 320 g/ha
Outline: (§3)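 In this soil treatment, the formulated compound reached the seeds only through the soil: seeds were buried about 1.5 cm deep in sterilized diluvial soil, then the diluted emulsion was sprayed over the surface. After three weeks at 25° C. to 30° C. in a greenhouse, effects were graded on criteria from an earlier test.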

green foxtail [3] = experiment: Test Example 4: herbicidal effect by soil treatment (Table 19, symbol G); type: in vivo, green foxtail (Setaria viridis); conditions: amount of applied herbicide 320 g/ha
Outline: as §3

barnyard grass [4] = experiment: Test Example 4: herbicidal effect by soil treatment (Table 19, symbol H); type: in vivo, barnyard grass (Echinochloa crus-galli); conditions: amount of applied herbicide 320 g/ha
Outline: as §3

wild oat [5] = experiment: Test Example 4: herbicidal effect by soil treatment (Table 19, symbol I); type: in vivo, wild oat (Avena fatua); conditions: amount of applied herbicide 320 g/ha
Outline: as §3

blackgrass [6] = experiment: Test Example 4: herbicidal effect by soil treatment (Table 19, symbol J); type: in vivo, blackgrass (Alopecurus myosuroides); conditions: amount of applied herbicide 320 g/ha
Outline: as §3

Italian ryegrass [7] = experiment: Test Example 4: herbicidal effect by soil treatment (Table 19, symbol K); type: in vivo, Italian ryegrass (Lolium multiflorum); conditions: amount of applied herbicide 320 g/ha
Outline: as §3

windgrass [8] = experiment: Test Example 4: herbicidal effect by soil treatment (Table 19, symbol L); type: in vivo, windgrass (Apera spica-venti); conditions: amount of applied herbicide 320 g/ha
Outline: as §3

velvetleaf [9] = experiment: Test Example 4: herbicidal effect by soil treatment (Table 19, symbol M); type: in vivo, velvetleaf (Abutilon theophrasti); conditions: amount of applied herbicide 320 g/ha
Outline: as §3

redroot pigweed [10] = experiment: Test Example 4: herbicidal effect by soil treatment (Table 19, symbol N); type: in vivo, redroot pigweed (Amaranthus retroflexus); conditions: amount of applied herbicide 320 g/ha
Outline: as §3

lambsquarters [11] = experiment: Test Example 4: herbicidal effect by soil treatment (Table 19, symbol O); type: in vivo, lambsquarters (Chenopodium album); conditions: amount of applied herbicide 320 g/ha
Outline: as §3

chickweed [12] = experiment: Test Example 4: herbicidal effect by soil treatment (Table 19, symbol P); type: in vivo, common chickweed (Stellaria media); conditions: amount of applied herbicide 320 g/ha
Outline: as §3

persian speedwell [13] = experiment: Test Example 4: herbicidal effect by soil treatment (Table 19, symbol R); type: in vivo, Persian speedwell (Veronica persica); conditions: amount of applied herbicide 320 g/ha
Outline: as §3

southern crabgrass [14] = experiment: Test Example 5: herbicidal effect by foliage application, plastic box (Table 20, symbol F); type: in vivo, southern crabgrass (Digitaria ciliaris); conditions: foliage application, 320 g/ha, evaluated three weeks after application
Outline: (§4)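 Plants were sown into sterilized diluvial soil under about 1.5 cm cover and kept in a greenhouse at 25° C. to 30° C. Fourteen days on, foliage received an even spray of the diluted emulsion. Herbicidal or crop effect was judged three weeks afterwards.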

green foxtail [15] = experiment: Test Example 5: herbicidal effect by foliage application, plastic box (Table 20, symbol G); type: in vivo, green foxtail (Setaria viridis); conditions: foliage application, 320 g/ha, evaluated three weeks after application
Outline: as §4

barnyard grass [16] = experiment: Test Example 5: herbicidal effect by foliage application, plastic box (Table 20, symbol H); type: in vivo, barnyard grass (Echinochloa crus-galli); conditions: foliage application, 320 g/ha, evaluated three weeks after application
Outline: as §4

wild oat [17] = experiment: Test Example 5: herbicidal effect by foliage application, plastic box (Table 20, symbol I); type: in vivo, wild oat (Avena fatua); conditions: foliage application, 320 g/ha, evaluated three weeks after application
Outline: as §4

blackgrass [18] = experiment: Test Example 5: herbicidal effect by foliage application, plastic box (Table 20, symbol J); type: in vivo, blackgrass (Alopecurus myosuroides); conditions: foliage application, 320 g/ha, evaluated three weeks after application
Outline: as §4

Italian ryegrass [19] = experiment: Test Example 5: herbicidal effect by foliage application, plastic box (Table 20, symbol K); type: in vivo, Italian ryegrass (Lolium multiflorum); conditions: foliage application, 320 g/ha, evaluated three weeks after application
Outline: as §4

windgrass [20] = experiment: Test Example 5: herbicidal effect by foliage application, plastic box (Table 20, symbol L); type: in vivo, windgrass (Apera spica-venti); conditions: foliage application, 320 g/ha, evaluated three weeks after application
Outline: as §4

velvetleaf [21] = experiment: Test Example 5: herbicidal effect by foliage application, plastic box (Table 20, symbol M); type: in vivo, velvetleaf (Abutilon theophrasti); conditions: foliage application, 320 g/ha, evaluated three weeks after application
Outline: as §4

redroot pigweed [22] = experiment: Test Example 5: herbicidal effect by foliage application, plastic box (Table 20, symbol N); type: in vivo, redroot pigweed (Amaranthus retroflexus); conditions: foliage application, 320 g/ha, evaluated three weeks after application
Outline: as §4

lambsquarters [23] = experiment: Test Example 5: herbicidal effect by foliage application, plastic box (Table 20, symbol O); type: in vivo, lambsquarters (Chenopodium album); conditions: foliage application, 320 g/ha, evaluated three weeks after application
Outline: as §4

chickweed [24] = experiment: Test Example 5: herbicidal effect by foliage application, plastic box (Table 20, symbol P); type: in vivo, common chickweed (Stellaria media); conditions: foliage application, 320 g/ha, evaluated three weeks after application
Outline: as §4

persian speedwell [25] = experiment: Test Example 5: herbicidal effect by foliage application, plastic box (Table 20, symbol R); type: in vivo, Persian speedwell (Veronica persica); conditions: foliage application, 320 g/ha, evaluated three weeks after application
Outline: as §4

SMILES: COc1ccccc1-c1sc2ccc(C#C[Si](C)(C)C)cc2c1-c1c(O)c(C)nn(C)c1=O [2-188]
- Herbicidal effect on A: late watergrass (grade 0-5) (late watergrass): 4 (Herbicidal rate of 70% or more and less than 90%)
- Herbicidal effect on B: Japanese bulrush (grade 0-5) (Japanese bulrush): 0 (Herbicidal rate of 5% or less (almost no effect))
- Herbicidal effect on C: oval-leafed pondweed (grade 0-5) (oval-leafed pondweed): 0 (Herbicidal rate of 5% or less (almost no effect))
- herbicidal effect on H: barnyard grass (barnyard grass [1]): 4 (Herbicidal rate of 70% or more and less than 90%)
- herbicidal effect on D: Chinese sprangletop (Chinese sprangletop): 3 (Herbicidal rate of 40% or more and less than 70%)
- herbicidal effect on E: rice flat sedge (rice flat sedge): 0 (Herbicidal rate of 5% or less (almost no effect))
- F: southern crabgrass, herbicidal effect rating (southern crabgrass [2]): 0 (Herbicidal rate of 5% or less (almost no effect))
- G: green foxtail, herbicidal effect rating (green foxtail [3]): 0 (Herbicidal rate of 5% or less (almost no effect))
- H: barnyard grass, herbicidal effect rating (barnyard grass [4]): 0 (Herbicidal rate of 5% or less (almost no effect))
- I: wild oat, herbicidal effect rating (wild oat [5]): 0 (Herbicidal rate of 5% or less (almost no effect))
- J: blackgrass, herbicidal effect rating (blackgrass [6]): 0 (Herbicidal rate of 5% or less (almost no effect))
- K: Italian ryegrass, herbicidal effect rating (Italian ryegrass [7]): 0 (Herbicidal rate of 5% or less (almost no effect))
- L: windgrass, herbicidal effect rating (windgrass [8]): 0 (Herbicidal rate of 5% or less (almost no effect))
- M: velvetleaf, herbicidal effect rating (velvetleaf [9]): 0 (Herbicidal rate of 5% or less (almost no effect))
- N: redroot pigweed, herbicidal effect rating (redroot pigweed [10]): 5 (Herbicidal rate of 90% or more (almost completely withered))
- O: lambsquarters, herbicidal effect rating (lambsquarters [11]): 3 (Herbicidal rate of 40% or more and less than 70%)
- P: chickweed, herbicidal effect rating (chickweed [12]): 0 (Herbicidal rate of 5% or less (almost no effect))
- R: persian speedwell, herbicidal effect rating (persian speedwell [13]): 0 (Herbicidal rate of 5% or less (almost no effect))
- herbicidal effect on F: southern crabgrass (criteria 0-5) (southern crabgrass [14]): 3 (Herbicidal rate of 40% or more and less than 70%)
- herbicidal effect on G: green foxtail (criteria 0-5) (green foxtail [15]): 0 (Herbicidal rate of 5% or less (almost no effect))
- herbicidal effect on H: barnyard grass (criteria 0-5) (barnyard grass [16]): 1 (Herbicidal rate of 5% or more and less than 20%)
- herbicidal effect on I: wild oat (criteria 0-5) (wild oat [17]): 0 (Herbicidal rate of 5% or less (almost no effect))
- herbicidal effect on J: blackgrass (criteria 0-5) (blackgrass [18]): 4 (Herbicidal rate of 70% or more and less than 90%)
- herbicidal effect on K: Italian ryegrass (criteria 0-5) (Italian ryegrass [19]): 4 (Herbicidal rate of 70% or more and less than 90%)
- herbicidal effect on L: windgrass (criteria 0-5) (windgrass [20]): 4 (Herbicidal rate of 70% or more and less than 90%)
- herbicidal effect on M: velvetleaf (criteria 0-5) (velvetleaf [21]): 0 (Herbicidal rate of 5% or less (almost no effect))
- herbicidal effect on N: redroot pigweed (criteria 0-5) (redroot pigweed [22]): 3 (Herbicidal rate of 40% or more and less than 70%)
- herbicidal effect on O: lambsquarters (criteria 0-5) (lambsquarters [23]): 2 (Herbicidal rate of 20% or more and less than 40%)
- herbicidal effect on P: chickweed (criteria 0-5) (chickweed [24]): 5 (Herbicidal rate of 90% or more (almost completely withered))
- herbicidal effect on R: persian speedwell (criteria 0-5) (persian speedwell [25]): 1 (Herbicidal rate of 5% or more and less than 20%)
